Several values for one entry are separate records, joined by “and”; a condition that tells them apart may be missing. Equal values may be shown once.

Results on six compounds are retold here after Sander's compilation of Henry's law constants (doi:10.14233/ajchem.2013.13584).

This data set in a line: Henry solubility constant Hcp at 298.15 K (mol/(m3 Pa)). The conditions noted are these: reference: Zhang et al. (2013).
As for `O=[N+]([O-])c1ccccc1` [nitrobenzene], the “Henry solubility constant Hcp” value was 0.14. With `CCc1ccccc1` [ethylbenzene], the “Henry solubility constant Hcp” value was 0.0019 and 0.0014. In the case of `c1ccccc1` [benzene] it was 0.0027 and 0.0035. In the case of `Cc1ccccc1` [methylbenzene], the “Henry solubility constant Hcp” value was found to be 0.0028. Under `ClC=C(Cl)Cl` [trichloroethene] stands 0.0016 and 0.0013; under `Cc1ccccc1C` [1,2-dimethylbenzene], 0.0027 and 0.0022.
